ChEMBL document CHEMBL5620367, “Discovery of new tetrahydroisoquinolines as potent and selective LSD1 inhibitors for the treatment of MLL-rearranged leukemia” (Eur J Med Chem, 2023)
Calls of active or inactive are those of the source. No cut-off for these calls is given here.

Experiments:
MOLM-13 [1] = assay: Induction of cell differentiation in human MOLM-13 cells assessed as increase in CD11b level upto 400 uM incubated for 7 days […]; type: functional, cell-based; conditions: time 7.0 day
MOLM-13 [2] = assay: Induction of apoptosis in human MOLM-13 cells assessed as viable cells at 100 uM incubated for 3 days by Annexin V staining based flow cytometry (reference value: 90.54 %); type: functional; conditions: MOLM-13, 72 h, time 3 day, read-out: Activity
MV4-11 [3] = assay: Induction of apoptosis in human MV4-11 cells assessed as late apoptotic cells at 10 uM incubated for 3 days by Annexin V staining based flow cytometry (reference value: 7.29 %); type: functional; conditions: time 3 day
MOLM-13 [4] = assay: Induction of apoptosis in human MOLM-13 cells assessed as early apoptotic cells at 10 uM incubated for 3 days by Annexin V staining based flow cytometry (reference value: 4.94 %); type: functional; conditions: time 3 day
MV4-11 [5] = assay: Induction of apoptosis in human MV4-11 cells assessed as viable cells at 100 uM incubated for 3 days by Annexin V staining based flow cytometry (reference value: 89.63 %); type: functional; conditions: MV4-11, 72 h, time 3 day, read-out: Activity
MOLM-13 [6] = assay: Induction of apoptosis in human MOLM-13 cells assessed as late apoptotic cells at 100 uM incubated for 3 days by Annexin V staining based flow cytometry (reference value: 3.29 %); type: functional; conditions: time 3 day
MOLM-13 [7] = assay: Induction of cell differentiation in human MOLM-13 cells assessed as CD11b level at 10 uM incubated for 3 days by Annexin V staining based flow cytometry (reference value: 13.77 %); type: functional; conditions: time 3 day
MV4-11 [8] = assay: Induction of cell differentiation in human MV4-11 cells assessed as increase in CD14 level upto 100 uM incubated for 3 days by Annexin V staining based flow cytometry; type: functional; conditions: time 3.0 day
MV4-11 [9] = assay: Induction of cell differentiation in human MV4-11 cells assessed as CD11b level at 10 uM incubated for 3 days by Annexin V staining based flow cytometry (reference value: 8.58 %); type: functional; conditions: time 3 day
MV4-11 [10] = assay: Induction of apoptosis in human MV4-11 cells assessed as early apoptotic cells at 100 uM incubated for 3 days by Annexin V staining based flow cytometry (reference value: […] %); type: functional; conditions: time 3 day
MV4-11 [11] = assay: Anti-invasive activity against human MV4-11 cells xenografted in NOD-SCID mouse assessed as reduction in tumor formation in ovarian tissue at 50 mg/kg, sc measured after 33 days; type: functional, organism-based; conditions: time 33.0 day
MOLM-13 [12] = assay: Anti-cancer activity against human MOLM-13 cells assessed as reduction in HoxA9 mRNA level upto 100 uM by qRT-PCR analysis relative to control; type: functional; set-up: scale not given: the % may be the effect or the level left; conditions: up to 100 µM
MV4-11 [13] = assay: Induction of apoptosis in human MV4-11 cells assessed as increase in p53 level upto 100 uM incubated for 3 days by Western blot analysis; type: functional, cell-based; conditions: time 3.0 day
MV4-11 [14] = assay: Anti-invasive activity against human MV4-11 cells xenografted in NOD-SCID mouse assessed as reduction in tumor formation in ovarian tissue at 78.7 mg/kg, sc measured after 33 days; type: functional, organism-based; conditions: time 33.0 day
MV4-11 [15] = assay: Antitumor activity against human MV4-11 cells xenografted in NOD-SCID mouse assessed as decrease in leukemic cells in spleen at 78.7 mg/kg, sc measured after 33 days relative to control; type: functional; set-up: scale not given: the % may be the effect or the level left; conditions: time 33 day
[16] = Toxicity in NOD-SCID mouse xenografted with human MV4-11 cells assessed as change in fur morphology at 50 to 78.7 mg/kg, sc measured after 33 days; type: organism-based; conditions: in vivo, 792 h, dose 50-78.7 mg/kg, time 33 day
MV4-11 [17] = assay: Induction of cell differentiation in human MV4-11 cells assessed as CD11b level at 100 uM incubated for 3 days by Annexin V staining based flow cytometry (reference value: 8.58 %); type: functional; conditions: time 3 day
MOLM-13 [18] = assay: Induction of apoptosis in human MOLM-13 cells assessed as increase in p53 level upto 100 uM incubated for 3 days by Western blot analysis; type: functional, cell-based; conditions: time 3.0 day
[19] = Toxicity in NOD-SCID mouse xenografted with human MV4-11 cells assessed as hunch-back posture at 50 to 78.7 mg/kg, sc measured after 33 days; type: organism-based; conditions: in vivo, 792 h, dose 50-78.7 mg/kg, time 33 day
MOLM-13 [20] = assay: Induction of cell differentiation in human MOLM-13 cells assessed as increase in CD14 level upto 100 uM incubated for 3 days by Annexin V staining based flow cytometry; type: functional; conditions: time 3.0 day
MV4-11 [21] = assay: Induction of apoptosis in human MV4-11 cells assessed as viable cells at 10 uM incubated for 3 days by Annexin V staining based flow cytometry (reference value: 89.63 %); type: functional; conditions: MV4-11, 72 h, time 3 day, read-out: Activity
MV4-11 [22] = assay: Antitumor activity against human MV4-11 cells xenografted in NOD-SCID mouse assessed as increase in RBC at 50 to 78.7 mg/kg, sc measured after 33 days; type: functional, organism-based; conditions: dose 50-78.7 mg/kg, time 33.0 day
MV4-11 [23] = assay: Anti-cancer activity against human MV4-11 cells assessed as reduction in Meis1 mRNA level upto 100 uM by qRT-PCR analysis; type: functional, cell-based
MOLM-13 [24] = assay: Induction of apoptosis in human MOLM-13 cells assessed as viable cells at 10 uM incubated for 3 days by Annexin V staining based flow cytometry (reference value: 90.54 %); type: functional; conditions: MOLM-13, 72 h, time 3 day, read-out: Activity
MV4-11 [25] = assay: Anti-cancer activity against human MV4-11 cells assessed as reduction in HoxA9 mRNA level upto 100 uM by qRT-PCR analysis; type: functional, cell-based
MOLM-13 [26] = assay: Induction of apoptosis in human MOLM-13 cells assessed as late apoptotic cells at 30 uM incubated for 3 days by Annexin V staining based flow cytometry (reference value: 3.29 %); type: functional; conditions: time 3 day
MOLM-13 [27] = assay: Anti-cancer activity against human MOLM-13 cells assessed as reduction in Meis1 mRNA level upto 100 uM by qRT-PCR analysis relative to control; type: functional; set-up: scale not given: the % may be the effect or the level left; conditions: up to 100 µM
MV4-11 [28] = assay: Induction of apoptosis in human MV4-11 cells assessed as early apoptotic cells at 30 uM incubated for 3 days by Annexin V staining based flow cytometry (reference value: […] %); type: functional; conditions: time 3 day

SMILES: O=C(O)C(F)(F)F.O=[N+]([O-])c1ccc(C2NCCc3cc(O)c(O)cc32)cc1 (stereo not drawn)
- Activity (MOLM-13 [1]): Active
- viability at 100 µM (MOLM-13 [2]): 56%
- Activity (MV4-11 [3]): 22.73%
- Activity (MOLM-13 [4]): 7.17%
- viability at 100 µM (MV4-11 [5]): 49.9%
- Activity (MOLM-13 [6]): 18.07%
- Activity (MOLM-13 [7]): 29.35%
- Activity (MV4-11 [8]): Active
- Activity (MV4-11 [9]): 14.39%
- Activity (MV4-11 [10]): 9.09%
- Activity (MV4-11 [11]): inactive
- Activity (MOLM-13 [12]): ~70%
- Activity (MV4-11 [13]): Active
- Activity (MV4-11 [14]): Active
- Activity (MV4-11 [15]): 87%
- Activity [16]: Toxic
- Activity (MV4-11 [17]): 69.19%
- Activity (MOLM-13 [18]): Active
- Activity [19]: Toxic
- Activity (MOLM-13 [20]): Active
- viability at 10 µM (MV4-11 [21]): 66.2%
- Activity (MV4-11 [22]): Active
- Activity (MV4-11 [23]): Active
- viability at 10 µM (MOLM-13 [24]): 76.6%
- Activity (MV4-11 [25]): Active
- Activity (MOLM-13 [26]): 15.99%
- Activity (MOLM-13 [27]): ~60%
- Activity (MV4-11 [28]): 7.75%
